# Measured values taken from patent publication US9452196B2, “Pharmaceutical composition for treating medical conditions and a method for treating alimentary disorders and related diseases” (SOCIEDADE BENEFICENTE DE SENHORAS HOSPITAL SIRIO LIBANES, priority 2009, dated 2016).
# Read-outs that look alike come from different tables or passages of the source.
# Key:
# [1] = tested on: rats; assay: body weight and fat content after oral administration; assay type: in vivo, rat; conditions: for Body Weight (% of Control) / Periepididymal Adipose Tissue Weight / Retroperitoneal Adipose Tissue Weight / Visceral Adipose Tissue Weight: rats
# [2] = molecular target: T1, CB1 receptor (Homo sapiens, UniProt P21554); assay type: biochemical
# T1 sequence (P21554 whole entry): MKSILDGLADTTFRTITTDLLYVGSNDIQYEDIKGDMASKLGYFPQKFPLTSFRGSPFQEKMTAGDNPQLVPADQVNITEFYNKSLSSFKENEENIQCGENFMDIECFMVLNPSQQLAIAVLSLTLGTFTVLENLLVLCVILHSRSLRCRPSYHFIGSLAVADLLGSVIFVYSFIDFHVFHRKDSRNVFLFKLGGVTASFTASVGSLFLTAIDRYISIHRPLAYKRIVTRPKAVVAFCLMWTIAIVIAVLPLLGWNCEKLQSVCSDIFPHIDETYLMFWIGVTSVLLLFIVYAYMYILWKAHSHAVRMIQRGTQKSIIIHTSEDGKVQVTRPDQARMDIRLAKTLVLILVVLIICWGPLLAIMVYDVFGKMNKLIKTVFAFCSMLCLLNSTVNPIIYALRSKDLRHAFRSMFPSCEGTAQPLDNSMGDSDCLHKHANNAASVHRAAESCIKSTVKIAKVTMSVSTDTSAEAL
# Procedure: A test was then designed, the results of which are illustrated in FIG. 2B, to determine if hemopressin could block the signaling of CB1 receptor. […] Finally, a test was designed to measure whether hemopressin is capable of blocking the increase of levels of phosphorylated ERK1 and ERK2.
# Hemopressin was also determined to not only act as an antagonist but as an inverse agonist of CB1 receptors. This was further explored by studying the binding of GTPgammaS, adenylate cyclase activity and MAP kinase phopshorylation. […] This can clearly be seen in FIGS. 3A-C.
# [3] = tested on: diet induced obese rats; assay: insulin sensitivity in diet induced obese rats; assay type: in vivo, rat; conditions: 50 micrograms/Kg and 1 mg/Kg hemopressin, FIG. 6
# [4] = molecular target: T1, CB1 receptor; conditions: in vitro, Dodd et al.; cited from earlier work
# [5] = tested on: 2A neural cells; assay: growth of neurites in 2A neural cells; assay type: cell-based; conditions: FIG. 3D; for basal growth of neurites: substance alone
# [6] = tested on: rats and mice; conditions: Dodd et al., cited from earlier work
# [7] = molecular target: T1, CB1 receptor; assay: displacement of the ligand rimonabant from CB1 receptors; assay type: binding; conditions: FIG. 2A
# [8] = tested on: male Wistar rats; assay: fat content and body weight in male Wistar rats on 63-day diet; assay type: in vivo, rat; conditions: once a day for three days; for Body Weight (% of Control) / Periepididymal Adipose Tissue Weight / Retroperitoneal Adipose Tissue Weight / Visceral Adipose Tissue Weight: 63-day ad libitum diet
# [9] = molecular target: T1, CB1 receptor; conditions: literature; cited from earlier work
# [10] = tested on: rats; assay: standard swimming test for depression; assay type: in vivo, rat; conditions: hemopressin 1 mg/Kg, FIG. 5
# [11] = molecular target: T2, type 2 Angiotensin II receptor (AT2) (Homo sapiens, UniProt P50052); assay: recognition by conformation-sensitive receptor antibody; assay type: biochemical
# T2 sequence (P50052 1-363): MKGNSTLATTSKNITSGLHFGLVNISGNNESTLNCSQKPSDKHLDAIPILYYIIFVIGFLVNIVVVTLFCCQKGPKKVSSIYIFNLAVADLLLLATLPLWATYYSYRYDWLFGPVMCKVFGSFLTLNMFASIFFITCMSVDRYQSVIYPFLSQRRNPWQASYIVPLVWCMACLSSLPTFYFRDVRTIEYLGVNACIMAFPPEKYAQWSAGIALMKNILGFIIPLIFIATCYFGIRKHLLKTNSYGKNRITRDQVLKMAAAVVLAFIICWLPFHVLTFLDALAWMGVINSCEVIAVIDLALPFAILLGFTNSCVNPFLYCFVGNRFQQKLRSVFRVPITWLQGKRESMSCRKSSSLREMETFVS
# Description: (§1) Next the selectivity of hemopressin for CB1 receptors was examined using antibodies sensitive to the conformations of mu and delta opiod receptors, alpha-2A and beta-2 adrenergic receptors, as well as type 1 and 2 Angiotensin II receptors. In the following table, it is possible to identify the specificity of the peptide hemopressin for the CB1 receptor. […] The following data presents the percentage of activity as compared to the control group: […]
# [12] = molecular target: T3, type 1 Angiotensin II receptor (AT1) (Homo sapiens, UniProt P30556); assay: as above; assay type: biochemical
# T3 sequence (P30556 1-359): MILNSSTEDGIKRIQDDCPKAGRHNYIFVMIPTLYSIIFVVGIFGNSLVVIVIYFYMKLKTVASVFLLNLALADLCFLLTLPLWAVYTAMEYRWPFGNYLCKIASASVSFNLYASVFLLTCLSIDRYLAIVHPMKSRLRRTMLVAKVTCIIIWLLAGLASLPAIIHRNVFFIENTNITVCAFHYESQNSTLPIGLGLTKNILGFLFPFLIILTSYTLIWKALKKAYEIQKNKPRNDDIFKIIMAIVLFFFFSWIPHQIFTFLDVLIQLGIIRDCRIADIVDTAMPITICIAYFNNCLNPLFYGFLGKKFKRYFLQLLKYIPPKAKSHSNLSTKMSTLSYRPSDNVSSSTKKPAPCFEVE
# Description: as §1
# [13] = molecular target: T4, alpha-2A adrenergic receptor (Homo sapiens, UniProt P08913); assay: as above; assay type: biochemical
# T4 sequence (P08913 1-465): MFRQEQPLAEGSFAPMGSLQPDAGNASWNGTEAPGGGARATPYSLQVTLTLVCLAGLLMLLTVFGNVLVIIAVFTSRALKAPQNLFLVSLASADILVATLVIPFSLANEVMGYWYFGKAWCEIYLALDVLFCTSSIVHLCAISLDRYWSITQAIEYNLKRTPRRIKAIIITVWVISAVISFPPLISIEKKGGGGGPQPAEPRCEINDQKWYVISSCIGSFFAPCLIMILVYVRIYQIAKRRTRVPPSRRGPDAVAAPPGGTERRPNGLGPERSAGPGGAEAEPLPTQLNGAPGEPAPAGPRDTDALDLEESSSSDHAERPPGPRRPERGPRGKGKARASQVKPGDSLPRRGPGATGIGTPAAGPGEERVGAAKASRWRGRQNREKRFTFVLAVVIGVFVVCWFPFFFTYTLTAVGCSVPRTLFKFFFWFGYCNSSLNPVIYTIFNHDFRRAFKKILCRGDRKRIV
# Description: as §1
# [14] = molecular target: beta-2 adrenergic receptor (Homo sapiens, UniProt P07550); assay: as above; assay type: biochemical
# Chain of beta-2 adrenergic receptor (P07550 whole entry): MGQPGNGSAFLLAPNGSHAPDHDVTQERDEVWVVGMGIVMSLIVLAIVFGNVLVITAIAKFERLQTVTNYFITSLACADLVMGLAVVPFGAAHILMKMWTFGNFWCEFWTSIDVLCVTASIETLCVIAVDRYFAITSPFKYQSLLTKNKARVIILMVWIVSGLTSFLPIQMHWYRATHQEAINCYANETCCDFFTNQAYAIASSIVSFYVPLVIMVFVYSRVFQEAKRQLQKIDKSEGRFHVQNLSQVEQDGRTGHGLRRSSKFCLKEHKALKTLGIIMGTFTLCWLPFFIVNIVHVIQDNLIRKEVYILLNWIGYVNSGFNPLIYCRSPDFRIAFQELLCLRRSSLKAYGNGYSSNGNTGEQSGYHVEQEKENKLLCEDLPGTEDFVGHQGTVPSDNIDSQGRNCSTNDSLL
# Description: as §1
# [15] = molecular target: delta opioid receptor (Homo sapiens, UniProt P41143); assay: as above; assay type: biochemical
# Chain of delta opioid receptor (P41143 whole entry): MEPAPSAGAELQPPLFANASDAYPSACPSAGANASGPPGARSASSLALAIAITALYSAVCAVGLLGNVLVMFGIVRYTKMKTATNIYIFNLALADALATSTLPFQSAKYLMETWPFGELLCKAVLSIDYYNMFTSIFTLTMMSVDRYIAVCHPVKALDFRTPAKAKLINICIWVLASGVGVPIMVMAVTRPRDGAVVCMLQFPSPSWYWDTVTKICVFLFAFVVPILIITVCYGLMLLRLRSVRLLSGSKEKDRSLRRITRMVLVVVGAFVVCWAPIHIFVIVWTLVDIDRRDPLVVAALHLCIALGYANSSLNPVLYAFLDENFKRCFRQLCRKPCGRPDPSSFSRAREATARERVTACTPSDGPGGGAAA
# Description: as §1
# [16] = molecular target: mu opioid receptor (Homo sapiens, UniProt P35372); assay: as above; assay type: biochemical
# Chain of mu opioid receptor (P35372 whole entry): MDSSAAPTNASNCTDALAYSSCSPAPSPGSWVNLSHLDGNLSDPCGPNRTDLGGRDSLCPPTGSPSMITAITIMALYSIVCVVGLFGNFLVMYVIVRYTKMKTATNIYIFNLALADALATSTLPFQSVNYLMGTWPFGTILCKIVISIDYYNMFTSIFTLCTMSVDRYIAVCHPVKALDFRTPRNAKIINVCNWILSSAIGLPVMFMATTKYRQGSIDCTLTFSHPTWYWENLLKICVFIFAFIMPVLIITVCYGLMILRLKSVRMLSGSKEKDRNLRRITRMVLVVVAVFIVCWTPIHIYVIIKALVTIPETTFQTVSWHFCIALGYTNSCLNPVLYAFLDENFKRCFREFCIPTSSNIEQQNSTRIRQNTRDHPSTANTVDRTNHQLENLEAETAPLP
# Description: as §1
# [17] = molecular target: T1, CB1 receptor; assay type: biochemical; conditions: for percentage of activity as compared to the control group: CB1
# Description: Next the selectivity of hemopressin for CB1 receptors was examined using antibodies sensitive to the conformations of mu and delta opiod receptors, alpha-2A and beta-2 adrenergic receptors, as well as type 1 and 2 Angiotensin II receptors.
# [18] = cited from earlier work
# [19] = tested on: rodents and humans; conditions: literature; cited from earlier work
# [20] = tested on: male Zucker rats; assay: fat content in male Zucker rats after intraperitoneal administration; assay type: in vivo, rat; conditions: intraperitoneal 50 micrograms/Kg once a day for three days
# Procedure: Experiments were also conducted on genetically obese and diet-induced rats of another species. Male Zucker rats were maintained on a 12 hour light/dark cycle. The rats were divided into two groups that receive once a day for three days either intraperiotoneal administration of 50 micrograms/Kg body weight of HPW2 or saline.
compound,measurement,setting,value
"VDPENFRLLGNM (listed as Rattus sp.) [non-cannabinoid peptide, reference compound]",fat content,[1],no effect
same,Body Weight (% of Control),[1],100.65 ± 8.07 % of Control
same,Periepididymal Adipose Tissue Weight,[1],9.38 ± 0.95 g
same,Retroperitoneal Adipose Tissue Weight,[1],8.80 ± 1.15 g
same,Visceral Adipose Tissue Weight,[1],4.81 ± 1.25 g
CC(C)C[C@H](NC(=O)[C@H](Cc1ccccc1)NC(=O)[C@H](CCCCN)NC(=O)[C@H](Cc1ccccc1)NC(=O)[C@H](CC(N)=O)NC(=O)[C@@H](NC(=O)C1CCCN1)C(C)C)C(=O)N[C@@H](CO)C(=O)N[C@@H](Cc1cnc[nH]1)C(=O)O (stereo partly drawn) [hemopressin],block of the increase of GTPgammaS,[2],capable of blocking the increase of GTPgammaS
same,block of the increase of levels of phosphorylated ERK1 and ERK2,[2],behave similarly to rimonabant
same,block of decreases in cAMP levels,"[2]; against agonists, FIG. 2C",block decreases in cAMP levels with efficiency similar to that of rimonabant
same,"basal signaling, binding of GTPgammaS","[2]; without agonist, FIG. 3A",causes decreases in signaling below the basal levels
same,"basal signaling, adenylate cyclase activity","[2]; without agonist, FIG. 3B",causes decreases in signaling below the basal levels
same,"basal signaling, MAP kinase phosphorylation","[2]; without agonist, FIG. 3C",causes decreases in signaling below the basal levels
same,insulin sensitivity,[3],significantly improved insulin sensitivity
same,CB1 agonist-induced internalization of the CB1 receptor,[4],antagonize CB1 agonist-induced internalization of the CB1 receptor in vitro
same,growth of neurites as measured against agonists,[5],efficiently blocks the growth of neurites
same,basal growth of neurites,[5],capable of decreasing the basal growth of neurites
same,food intake,[6]; administered centrally,induce hypophagia in vivo when administered centrally
same,food intake,[6]; administered systemically,induce hypophagia in vivo when administered systemically
same,displacement of rimonabant from CB1 receptors,[7],capable of displacing rimonabant from CB1 receptors
same,Body Weight (% of Control),[8],98.62 ± 13.33 % of Control
same,Periepididymal Adipose Tissue Weight,[8],4.77 ± 1.06 g
same,Retroperitoneal Adipose Tissue Weight,[8],6.12 ± 2.09 g
same,Visceral Adipose Tissue Weight,[8],2.77 ± 0.58 g
same,periepididymal and visceral fat content compared to saline control,[8],significantly reduced periepididymal and visceral fat content
same,action at the CB1 receptor,[9],CB1 receptor inverse agonist
same,symptoms of depression in standard swimming test,[10],showed no such symptoms
same,retroperitoneal fat content,[1],significantly reduced by hemopressin only
same,total body weight and periepididymal fat content,[1],significantly reduce
same,Body Weight (% of Control),[1],96.89 ± 1.25 % of Control
same,Periepididymal Adipose Tissue Weight,[1],7.16 ± 1.36 g
same,Retroperitoneal Adipose Tissue Weight,[1],6.26 ± 1.62 g
same,Visceral Adipose Tissue Weight,[1],4.31 ± 0.61 g
same,percentage of activity as compared to the control group,[11]; agonist and HP together,137.10 ± 1.91%
same,percentage of activity as compared to the control group,[11]; hemopressin alone,99.65 ± 4.71%
same,percentage of activity as compared to the control group,[12]; agonist and HP together,140.01 ± 1.21%
same,percentage of activity as compared to the control group,[12]; hemopressin alone,109.65 ± 1.31%
same,percentage of activity as compared to the control group,[13]; agonist and HP together,130.05 ± 7.06%
same,percentage of activity as compared to the control group,[13]; hemopressin alone,102.72 ± 2.00%
same,percentage of activity as compared to the control group,[14]; agonist and HP together,157.40 ± 8.15%
same,percentage of activity as compared to the control group,[14]; hemopressin alone,103.85 ± 9.29%
same,percentage of activity as compared to the control group,[15]; agonist and HP together,131.08 ± 3.35%
same,percentage of activity as compared to the control group,[15]; hemopressin alone,100.65 ± 4.29%
same,percentage of activity as compared to the control group,[16]; agonist and HP together,141.09 ± 6.46%
same,percentage of activity as compared to the control group,[16]; hemopressin alone,105.62 ± 1.09%
same,block of the HU-210 induced increase in the recognition of the antibody,[17],significantly blocked
same,percentage of activity as compared to the control group,[17]; agonist and HP together,102.06 ± 5.91%
same,percentage of activity as compared to the control group,[17]; hemopressin alone,72.30 ± 3.32%
same,recognition of a CB1 specific antibody,"[17]; substance alone, FIG. 1A/1B",decrease the recognition of a CB1 specific antibody
same,selectivity for CB1 receptors,"[17]; versus mu and delta opioid, alpha-2A, beta-2, AT1, AT2 receptors",highly selective for CB1 receptors
same,antinociceptive effects,"[18]; Dale et al., literature",nonopioid antinociceptive effects
same,treatment of hyperalgesia,"[18]; administered locally or systemically, Heimann et al.",effective in treating hyperalgesia
"Cc1c(C(=O)NN2CCCCC2)nn(-c2ccc(Cl)cc2Cl)c1-c1ccc(Cl)cc1 [rimonabant, reference compound]",weight reduction,[19],weight-reducing effects over extended periods
same,insulin sensitivity,[3],did not produce similar results
same,growth of neurites as measured against agonists,[5],efficiently blocks the growth of neurites
same,symptoms of depression in standard swimming test,[10],caused the expected depression
same,Body Weight (% of Control),[1],98.92 ± 0.95 % of Control
same,Periepididymal Adipose Tissue Weight,[1],5.57 ± 1.03 g
same,Retroperitoneal Adipose Tissue Weight,[1],6.89 ± 1.31 g
same,Visceral Adipose Tissue Weight,[1],3.91 ± 0.78 g
PVNFKWLSH [HPW2],insulin sensitivity,[3],significantly improved insulin sensitivity
same,Body Weight (% of Control),[8],95.47 ± 15.44 % of Control
same,Periepididymal Adipose Tissue Weight,[8],4.01 ± 0.33 g
same,Retroperitoneal Adipose Tissue Weight,[8],5.37 ± 1.11 g
same,Visceral Adipose Tissue Weight,[8],2.63 ± 0.94 g
same,periepididymal and visceral fat content compared to saline control,[8],significantly reduced periepididymal and visceral fat content
same,retroperitoneal fat content,[20],significant reduction in retroperitoneal fat content
same,total body weight and periepididymal fat content,[1],significantly reduce
same,Body Weight (% of Control),[1],96.71 ± 2.03 % of Control
same,Periepididymal Adipose Tissue Weight,[1],7.32 ± 1.22 g
same,Retroperitoneal Adipose Tissue Weight,[1],7.19 ± 1.50 g
same,Visceral Adipose Tissue Weight,[1],4.28 ± 0.59 g
"CCCCCCC(C)(C)c1cc(O)c2c(c1)OC(C)(C)[C@@H]1CC=C(CO)C[C@@H]21 [HU-210, reference compound]",basal growth of neurites,[5],induction of the growth of neurites
same,recognition of a CB1 specific antibody,[17],increase
